How the values were obtained:
[1] = molecular target: T1, TDO (A172 cells) (Homo sapiens, UniProt P48775); assay: TDO cell-based assay (A172), kynurenine production; conditions: A172 human glioblastoma cells, 500 μM L-Trp, 48 h, kynurenine by absorbance at 490 nm
T1 construct: This assay utilised cancer cells which expressed either TDO or IDO; host or cells: A172 human glioblastoma cells
Source text: (§1) Two different types of assay were employed: 1. A TDO and IDO biochemical coupled assay which utilised recombinantly produced and purified TDO and IDO enzymes in combination with the enzyme formamidase. This coupled enzyme system allowed conversion of N-formylkynurenine produced by TDO or IDO activity to kynurenine which was then quantified by fluorescence following addition of Erhlich's Reagent. 2. A cell-based assay for detecting the effect of test compounds on kynurenine production in two different cancer cell types. This assay utilised cancer cells which expressed either TDO or IDO and as such was used as a means of testing compound activity at these two enzymes in a cell-based context. The protocols for these are set out below.
(§2) A172 human glioblastoma (ATCC) were grown in DMEM+2 mM L-glutamine medium supplemented with 10% foetal bovine serum and SKOV-3 ovary adenocarcinoma (ATCC) cells were grown in McCoys 5A+L-glutamax medium supplemented with 15% foetal bovine serum. On the day of assay, cells were detached using trypsin-EDTA (0.25% v/v), re-suspended in assay media (RPMI 1640 phenol red free+L-glutamine supplemented with 10% dialysed foetal bovine serum). A172 cells were seeded at 30K cells per well and SKOV-3 cells at 40K cells per well into 96-well plates containing test samples/vehicle control together with 500 μM L-Trp. Cells were then incubated for 48 h at 37° C., 5% CO2. In SK-OV-3 cells, IFNγ was also added at 500 ng/ml for the 48 h incubation in order to induce expression of IDO. Plates were centrifuged and the supernatant was removed and incubated for 5 min in the presence of 1% Erhlich's reagent. Kynurenine levels were then quantified by measuring absorbance at 490 nm.

[2] = molecular target: T2, IDO (SKOV-3 cells) (Homo sapiens, UniProt P14902); assay: IDO cell-based assay (SKOV-3, IFNγ-induced), kynurenine production; conditions: SKOV-3 ovary adenocarcinoma cells, IFNγ 500 ng/ml, 500 μM L-Trp, 48 h, kynurenine by absorbance at 490 nm
T2 construct: This assay utilised cancer cells which expressed either TDO or IDO; host or cells: SKOV-3 ovary adenocarcinoma cells, IFNγ-induced
T2 sequence (P14902 whole entry): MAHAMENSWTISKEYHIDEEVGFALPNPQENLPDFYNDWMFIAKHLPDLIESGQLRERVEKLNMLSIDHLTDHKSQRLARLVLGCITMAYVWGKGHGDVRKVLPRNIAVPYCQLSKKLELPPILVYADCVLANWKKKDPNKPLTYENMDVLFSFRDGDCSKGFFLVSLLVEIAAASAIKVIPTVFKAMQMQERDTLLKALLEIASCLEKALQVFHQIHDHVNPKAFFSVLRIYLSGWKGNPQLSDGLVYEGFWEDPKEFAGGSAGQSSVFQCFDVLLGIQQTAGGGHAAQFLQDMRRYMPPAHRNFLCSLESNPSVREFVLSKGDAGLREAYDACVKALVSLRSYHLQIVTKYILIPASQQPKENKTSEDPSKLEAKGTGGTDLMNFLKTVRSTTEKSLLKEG
Source text: as §1, §2

T1 sequence (P48775 whole entry): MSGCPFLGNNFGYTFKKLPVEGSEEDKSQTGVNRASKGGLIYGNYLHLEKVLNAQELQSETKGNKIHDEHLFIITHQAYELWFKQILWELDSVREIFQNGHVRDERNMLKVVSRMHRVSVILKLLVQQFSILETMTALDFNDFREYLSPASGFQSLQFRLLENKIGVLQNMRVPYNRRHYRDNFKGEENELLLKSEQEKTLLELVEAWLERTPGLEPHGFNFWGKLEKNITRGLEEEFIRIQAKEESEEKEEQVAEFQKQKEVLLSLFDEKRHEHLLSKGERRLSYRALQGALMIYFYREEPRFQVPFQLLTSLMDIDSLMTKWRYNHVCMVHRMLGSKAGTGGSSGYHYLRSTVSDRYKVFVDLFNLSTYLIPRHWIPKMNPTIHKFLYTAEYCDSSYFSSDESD

Row | TDO cellular assay (A172) pIC50 [1] | IDO cellular assay (SKOV3) pIC50 [2] | IC50 ([1]; read-out: TDO cellular assay (A172) pIC50 (converted)) | IC50 ([2]; read-out: IDO cellular assay (SKOV3) pIC50 (converted)) | SMILES
1 | ++ (++ = pIC50 5.00-<5.50) | + (+ = pIC50 4.50-<5.00) | – | – | CC(C)NC(=O)c1cc2cc(Cl)ccc2[nH]1 [Compound 67]
2 | ++ (++ = pIC50 5.00-<5.50) | +++ (+++ = pIC50 ≥5.50) | – | – | CC(C)(NC(=O)c1cc2cc(Cl)ccc2[nH]1)c1ccccc1 [Compound 68]
3 | ++ (++ = pIC50 5.00-<5.50) | +++ (+++ = pIC50 ≥5.50) | – | – | CC(NC(=O)c1cc2cc(Cl)ccc2[nH]1)C1CCCCC1 (stereo not shown) [Compound 69]
4 | ++ (++ = pIC50 5.00-<5.50) | +++ (+++ = pIC50 ≥5.50) | – | – | COc1ccc(C(C)NC(=O)c2cc3cc(Cl)ccc3[nH]2)cc1 (stereo not shown) [Compound 70]
5 | + (+ = pIC50 4.50-<5.00) | +++ (+++ = pIC50 ≥5.50) | – | – | CC(C)C(C)NC(=O)c1cc2cc(Cl)ccc2[nH]1 (stereo not shown) [Compound 71]
6 | − (− = pIC50 <4.50) | +++ (+++ = pIC50 ≥5.50) | – | – | C[C@@H](NC(=O)c1cc2cc(Cl)ccc2[nH]1)c1ccc(Cl)cc1 [Compound 72]
7 | − (− = pIC50 <4.50) | + (+ = pIC50 4.50-<5.00) | – | – | C[C@@H](NC(=O)c1nc2ccccc2o1)c1ccccc1 [Compound 73]
8 | − (− = pIC50 <4.50) | + (+ = pIC50 4.50-<5.00) | – | – | O=C(NC1CCOc2ccccc21)c1cc2ccccc2[nH]1 (stereo not shown) [Compound 74]
9 | − (− = pIC50 <4.50) | +++ (+++ = pIC50 ≥5.50) | – | – | C[C@H](NC(=O)c1cc2cc(Cl)ccc2[nH]1)c1ccc(Cl)cc1 [Compound 75]
10 | − (− = pIC50 <4.50) | + (+ = pIC50 4.50-<5.00) | – | – | C[C@H](NC(=O)c1nc2ccccc2o1)c1ccccc1 [Compound 76]
11 | + (+ = pIC50 4.50-<5.00) | +++ (+++ = pIC50 ≥5.50) | – | – | Cc1cccc2[nH]c(C(=O)NC(C)c3ccccc3)cc12 (stereo not shown) [Compound 77]
12 | + (+ = pIC50 4.50-<5.00) | ++ (++ = pIC50 5.00-<5.50) | – | – | Cc1ccc2cc(C(=O)NC(C)c3ccccc3)[nH]c2c1 (stereo not shown) [Compound 78]
13 | − (− = pIC50 <4.50) | + (+ = pIC50 4.50-<5.00) | – | – | CC(NC(=O)c1cc2cnccc2[nH]1)c1ccccc1 (stereo not shown) [Compound 79]
14 | − (− = pIC50 <4.50) | ++ (++ = pIC50 5.00-<5.50) | – | – | CC(NC(=O)c1cc2cccnc2[nH]1)c1ccccc1 (stereo not shown) [Compound 80]
15 | − (− = pIC50 <4.50) | + (+ = pIC50 4.50-<5.00) | – | – | CC(NC(=O)c1cc2ccncc2[nH]1)c1ccccc1 (stereo not shown) [Compound 81]
16 | +++ (+++ = pIC50 ≥5.50) | +++ (+++ = pIC50 ≥5.50) | – | – | CC(NC(=O)c1cc2cc(C#N)ccc2[nH]1)c1ccccc1 (stereo not shown) [Compound 82]
17 | ++ (++ = pIC50 5.00-<5.50) | +++ (+++ = pIC50 ≥5.50) | – | – | CC(NC(=O)c1cc2cc(Cl)ccc2[nH]1)c1ccc(S(C)(=O)=O)cc1 (stereo not shown) [Compound 84]
18 | ++ (++ = pIC50 5.00-<5.50) | ++ (++ = pIC50 5.00-<5.50) | – | – | CC(NC(=O)c1cc2ccc(C#N)cc2[nH]1)c1ccccc1 (stereo not shown) [Compound 85]
19 | +++ (+++ = pIC50 ≥5.50) | +++ (+++ = pIC50 ≥5.50) | – | – | CC(Cc1ccccc1)NC(=O)c1cc2cc(Cl)ccc2[nH]1 (stereo not shown) [Compound 86]
20 | + (+ = pIC50 4.50-<5.00) | +++ (+++ = pIC50 ≥5.50) | – | – | CC(NC(=O)c1cc2cc(Cl)ccc2[nH]1)c1ccc(N(C)C)cc1 (stereo not shown) [Compound 87]
21 | +++ (+++ = pIC50 ≥5.50) | − (− = pIC50 <4.50) | – | – | CC(NC(=O)c1cc2cc(C(N)=O)ccc2[nH]1)c1ccccc1 (stereo not shown) [Compound 88]
22 | +++ (+++ = pIC50 ≥5.50) | − (− = pIC50 <4.50) | – | – | CC(NC(=O)c1cc2ccc(C(N)=O)cc2[nH]1)c1ccccc1 (stereo not shown) [Compound 89]
23 | − (− = pIC50 <4.50) | +++ (+++ = pIC50 ≥5.50) | – | – | CC(NC(=O)c1cc2cc(Cl)ccc2[nH]1)c1ccc(C(=O)N2CCOCC2)cc1 (stereo not shown) [Compound 90]
24 | − (− = pIC50 <4.50) | + (+ = pIC50 4.50-<5.00) | – | – | CC(NC(=O)c1cc2cc(Cl)ccc2[nH]1)c1ccc(C(=O)N2CCN(C)CC2)cc1 (stereo not shown) [Compound 91]

Further lines, the compound ahead of its results:

Row | SMILES | TDO cellular assay (A172) pIC50 [1] | IDO cellular assay (SKOV3) pIC50 [2] | IC50 ([1]; read-out: TDO cellular assay (A172) pIC50 (converted)) | IC50 ([2]; read-out: IDO cellular assay (SKOV3) pIC50 (converted))
25 | C[C@@H](NC(=O)c1cc2ccc(Cl)cc2[nH]1)c1ccccc1 [Compound 47] | ++ (++ = pIC50 5.00-<5.50) | ++ (++ = pIC50 5.00-<5.50) | – | –
26 | C[C@@H](NC(=O)c1cc2cc(Cl)ccc2[nH]1)c1ccccc1 [Compound 48] | – | – | 3.16 to 10 µM | ≤ 3.16 µM
27 | C[C@H](NC(=O)c1cc2ccc(Cl)cc2[nH]1)c1ccccc1 [Compound 49] | + (+ = pIC50 4.50-<5.00) | ++ (++ = pIC50 5.00-<5.50) | – | –
28 | C[C@H](NC(=O)c1cc2cc(Cl)ccc2[nH]1)c1ccccc1 [Compound 50] | +++ (+++ = pIC50 ≥5.50) | +++ (+++ = pIC50 ≥5.50) | – | –
29 | O=C(Nc1cccc2ccccc12)c1cc2cc(F)ccc2[nH]1 [Compound 51] | − (− = pIC50 <4.50) | +++ (+++ = pIC50 ≥5.50) | – | –
30 | O=C(NCc1cc2cc(F)ccc2[nH]1)c1ccccc1 [Compound 52] | + (+ = pIC50 4.50-<5.00) | + (+ = pIC50 4.50-<5.00) | – | –
31 | C[C@@H](NC(=O)c1cc2c([nH]1)CCCC2)c1ccccc1 [Compound 53] | − (− = pIC50 <4.50) | + (+ = pIC50 4.50-<5.00) | – | –
32 | CC(NC(=O)c1cc2cc(F)ccc2[nH]1)c1cccnc1 (stereo not shown) [Compound 54] | − (− = pIC50 <4.50) | + (+ = pIC50 4.50-<5.00) | – | –
33 | C[C@H](NC(=O)c1cc2c([nH]1)CCCC2)c1ccccc1 [Compound 55] | + (+ = pIC50 4.50-<5.00) | − (− = pIC50 <4.50) | – | –
34 | C[C@H](NC(=O)c1cc2c(F)cccc2[nH]1)c1ccccc1 [Compound 56] | + (+ = pIC50 4.50-<5.00) | + (+ = pIC50 4.50-<5.00) | – | –
35 | O=S(=O)(NCc1cc2cc(F)ccc2[nH]1)c1ccccc1 [Compound 57] | + (+ = pIC50 4.50-<5.00) | − (− = pIC50 <4.50) | – | –
36 | CC(NC(=O)c1cc2cc(F)ccc2[nH]1)c1ccncc1 (stereo not shown) [Compound 58] | − (− = pIC50 <4.50) | ++ (++ = pIC50 5.00-<5.50) | – | –
37 | C[C@@H](c1ccccc1)N(C)C(=O)c1cc2cc(F)ccc2[nH]1 [Compound 59] | − (− = pIC50 <4.50) | + (+ = pIC50 4.50-<5.00) | – | –
38 | Cc1c(C(=O)N[C@@H](C)c2ccccc2)[nH]c2ccc(F)cc12 [Compound 60] | + (+ = pIC50 4.50-<5.00) | + (+ = pIC50 4.50-<5.00) | – | –
39 | C[C@@H](NC(=O)c1cc2cccc(F)c2[nH]1)c1ccccc1 [Compound 61] | +++ (+++ = pIC50 ≥5.50) | +++ (+++ = pIC50 ≥5.50) | – | –
40 | C[C@@H](NC(=O)c1cc2c(F)cccc2[nH]1)c1ccccc1 [Compound 62] | +++ (+++ = pIC50 ≥5.50) | +++ (+++ = pIC50 ≥5.50) | – | –
41 | C[C@H](NC(=O)c1cc2cccc(F)c2[nH]1)c1ccccc1 [Compound 63] | + (+ = pIC50 4.50-<5.00) | + (+ = pIC50 4.50-<5.00) | – | –
42 | O=C(Nc1cccc2ncccc12)c1cc2ccc(F)cc2[nH]1 [Compound 64] | ++ (++ = pIC50 5.00-<5.50) | ++ (++ = pIC50 5.00-<5.50) | – | –
43 | O=C(Nc1cccc2ccccc12)c1cc2ccc(F)cc2[nH]1 [Compound 65] | − (− = pIC50 <4.50) | +++ (+++ = pIC50 ≥5.50) | – | –
44 | O=C(NC1CCCc2ccccc21)c1cc2ccccc2[nH]1 (stereo not shown) [Compound 66] | − (− = pIC50 <4.50) | ++ (++ = pIC50 5.00-<5.50) | – | –

Reference: patent US10167257B2, “Indole derivatives for use in medicine” (IOmet Pharma Ltd., priority 2014, dated 2019)
